The experiment has as its system T cells stimulated by allogeneic DCs. Kind of experiment: Allogeneic T-cell response: lymphocyte proliferation induced by allogeneic dendritic cells, 3[H]-thymidin incorporation. The class given is cell-based, human. The conditions noted are these: 6 days. The source says: DCs were generated from CD14-positive blood monocytes as previously described ("Schuler G. and N. Romani", 1997, Adv. Exp. Med. Biol. 417:7-13). Briefly, peripheral blood mononuclear cells of an HLA-typed healthy donor were separated by density gradient centrifugation and CD14-positive monocytes were isolated by adherence to culture dishes. Non-adherent cells were discarded. After culture of monocytes in the presence of human rGM-CSF (666 Units/ml) and rIL-4 (1000 Units/ml) for 7 days, rTNF-α (10 ng/ml) was added for an additional 2 days to induce maturation of DC. Characterization of DC phenotype was performed by flow cytometry using the following mouse monoclonal antibodies: anti-CD 14-FITC, anti-HLA-DR-FITC, anti-CD 1a-PE, anti-CD86-PE, and anti-CD83-PE (BD Biosciences Heidelberg, Germany). DCs were kept in liquid nitrogen until use.
• (a) Allogeneic T-cell response. DCs were infected with recombinant IDO-adeno-GFP (DC-IDO-GFP), IDO-adeno (DC-IDO) or with control adenoviruses (DC-adeno) at a MOI (multiplicity of infection) up to 500 for 2 days. […] After 5 days, ^3[H]-thymidin was added for 12hrs and the number of counts (counts per minute = cpm) determined in a (3-counter (Inotech Biosystems, Lansing, MI). In order to verify whether IDO expression or adenovirus infection harm the DCs, 10^5 cells were infected with IDO-adeno-GFP, IDO-adenovirus, or adenovirus only at a stepwise decreasing MOI (500, 250, 125, ........ 3.9) and cell viability was measured in FACS following double staining with 7-AAD and anti-CD83 antibody-PE. The percentage of dead cells never exceeded 30% for any MOI following IDO-adeno-GFP- or IDO-adeno-infection and 40% following adenovirus(control)-infection. […] After 2 days, cell proliferation was assessed by measuring ^3[H]-thymidin incorporation (cpm) as described. • (c) Tryptophan metabolite titration curves. […] After 2 days, ^3[H] thymidin was added and the number of counts recorded. […] After another 2 days, ^3[H] thymidin was added and cpm determined. […]

As for `Nc1ccccc1C(=O)CC(N)C(=O)O` (centres unmarked) [kynurenine], the “inhibition of proliferation of T cells stimulated by allogeneic DCs (in words)” value is given as “completely inhibit the proliferation of T cells”. Also, the IC50 (Homo sapiens, T-cell, 144 h, 3[H]-thymidin incorporation, read-out: 50% inhibition (I50) of proliferation of T cells stimulated by allogeneic DCs) worked out at 157 µM.

The values are drawn from patent publication EP1369114A1, “Use of tryptophan metabolites as pharmaceutical agents” (Terness, Peter, Priv. Doz. Dr., priority 2002, dated 2003).
